Test system: yeast genes (expressed mRNA)
Test: DNA chip measurement of expressed mRNA of yeast genes after culture with a toxic chemical substance
Format: cell-based, Saccharomyces cerevisiae S288C
Conditions: for The level of expressed mRNA in the presence of chemical substance/The level of expressed mRNA in the absence of chemical substance: cultured two hours with substance; for level of expressed mRNA in the presence of chemical substance / level in the absence of chemical substance: cultured two hours with the chemical substance
In short: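 S. cerevisiae S288C grown at 25 °C in YPD, exposed in log phase for 2 h to a toxicant at growth-inhibiting, non-lethal concentration. Cy3/Cy5-labelled cDNA from poly(A) mRNA hybridized to whole-genome chip at 65 °C >12 h. Ratio to untreated control, ≥2 significant.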

Manganese ethylenebis(dithiocarbamate) [(8)]
3.7: The level of expressed mRNA in the presence of chemical substance/The level of expressed mRNA in the absence of chemical substance (yeast gene YOL150C)
0.8: The level of expressed mRNA in the presence of chemical substance/The level of expressed mRNA in the absence of chemical substance (yeast gene YNL115C) | The level of expressed mRNA in the presence of chemical substance/The level of expressed mRNA in the absence of chemical substance (yeast gene YOL036W) | level of expressed mRNA in the presence of chemical substance / level in the absence of chemical substance (yeast gene YOR087W) | level of expressed mRNA in the presence of chemical substance / level in the absence of chemical substance (yeast gene YOR138C) | level of expressed mRNA in the presence of chemical substance / level in the absence of chemical substance (yeast gene YPR146C)
1.8: The level of expressed mRNA in the presence of chemical substance/The level of expressed mRNA in the absence of chemical substance (yeast gene YNL044W)
1.0: level of expressed mRNA in the presence of chemical substance / level in the absence of chemical substance (yeast gene YPL005W) | The level of expressed mRNA in the presence of chemical substance/The level of expressed mRNA in the absence of chemical substance (yeast gene YPL087W) | level of expressed mRNA in the presence of chemical substance / level in the absence of chemical substance (yeast gene YPL180W) | The level of expressed mRNA in the presence of chemical substance/The level of expressed mRNA in the absence of chemical substance (yeast gene YPL206C) | level of expressed mRNA in the presence of chemical substance / level in the absence of chemical substance (yeast gene YPR172W)
1.4: The level of expressed mRNA in the presence of chemical substance/The level of expressed mRNA in the absence of chemical substance (yeast gene YPR151C)
1.6: The level of expressed mRNA in the presence of chemical substance/The level of expressed mRNA in the absence of chemical substance (yeast gene YOL071W) | The level of expressed mRNA in the presence of chemical substance/The level of expressed mRNA in the absence of chemical substance (yeast gene YOL162W) | level of expressed mRNA in the presence of chemical substance / level in the absence of chemical substance (yeast gene YPL188W)
1.7: level of expressed mRNA in the presence of chemical substance / level in the absence of chemical substance (yeast gene YPL225W)
1.2: The level of expressed mRNA in the presence of chemical substance/The level of expressed mRNA in the absence of chemical substance (yeast gene YNL156C) | The level of expressed mRNA in the presence of chemical substance/The level of expressed mRNA in the absence of chemical substance (yeast gene YNL281W) | level of expressed mRNA in the presence of chemical substance / level in the absence of chemical substance (yeast gene YOR022C) | level of expressed mRNA in the presence of chemical substance / level in the absence of chemical substance (yeast gene YOR253W) | level of expressed mRNA in the presence of chemical substance / level in the absence of chemical substance (yeast gene YPL168W) | The level of expressed mRNA in the presence of chemical substance/The level of expressed mRNA in the absence of chemical substance (yeast gene YPL196W)
1.3: The level of expressed mRNA in the presence of chemical substance/The level of expressed mRNA in the absence of chemical substance (yeast gene YNL234W) | The level of expressed mRNA in the presence of chemical substance/The level of expressed mRNA in the absence of chemical substance (yeast gene YOL083W)
0.7: level of expressed mRNA in the presence of chemical substance / level in the absence of chemical substance (yeast gene YNL200C) | level of expressed mRNA in the presence of chemical substance / level in the absence of chemical substance (yeast gene YNL276C) | The level of expressed mRNA in the presence of chemical substance/The level of expressed mRNA in the absence of chemical substance (yeast gene YNL305C) | level of expressed mRNA in the presence of chemical substance / level in the absence of chemical substance (yeast gene YNR051C) | level of expressed mRNA in the presence of chemical substance / level in the absence of chemical substance (yeast gene YOR267C) | The level of expressed mRNA in the presence of chemical substance/The level of expressed mRNA in the absence of chemical substance (yeast gene YPL222W)
0.9: The level of expressed mRNA in the presence of chemical substance/The level of expressed mRNA in the absence of chemical substance (yeast gene YNL092W) | level of expressed mRNA in the presence of chemical substance / level in the absence of chemical substance (yeast gene YNL176C) | level of expressed mRNA in the presence of chemical substance / level in the absence of chemical substance (yeast gene YNL194C) | The level of expressed mRNA in the presence of chemical substance/The level of expressed mRNA in the absence of chemical substance (yeast gene YOR197W) | level of expressed mRNA in the presence of chemical substance / level in the absence of chemical substance (yeast gene YOR325W) | level of expressed mRNA in the presence of chemical substance / level in the absence of chemical substance (yeast gene YPL221W) | The level of expressed mRNA in the presence of chemical substance/The level of expressed mRNA in the absence of chemical substance (yeast gene YPR023C)
1.5: level of expressed mRNA in the presence of chemical substance / level in the absence of chemical substance (yeast gene YNL063W) | The level of expressed mRNA in the presence of chemical substance/The level of expressed mRNA in the absence of chemical substance (yeast gene YOL032W) | level of expressed mRNA in the presence of chemical substance / level in the absence of chemical substance (yeast gene YPR148C)
1.1: level of expressed mRNA in the presence of chemical substance / level in the absence of chemical substance (yeast gene YNL253W) | The level of expressed mRNA in the presence of chemical substance/The level of expressed mRNA in the absence of chemical substance (yeast gene YNR068C) | level of expressed mRNA in the presence of chemical substance / level in the absence of chemical substance (yeast gene YOL026C) | The level of expressed mRNA in the presence of chemical substance/The level of expressed mRNA in the absence of chemical substance (yeast gene YOL047C) | The level of expressed mRNA in the presence of chemical substance/The level of expressed mRNA in the absence of chemical substance (yeast gene YOL082W) | The level of expressed mRNA in the presence of chemical substance/The level of expressed mRNA in the absence of chemical substance (yeast gene YOL117W) | The level of expressed mRNA in the presence of chemical substance/The level of expressed mRNA in the absence of chemical substance (yeast gene YOL131W) | The level of expressed mRNA in the presence of chemical substance/The level of expressed mRNA in the absence of chemical substance (yeast gene YOR019W) | level of expressed mRNA in the presence of chemical substance / level in the absence of chemical substance (yeast gene YPL150W) | level of expressed mRNA in the presence of chemical substance / level in the absence of chemical substance (yeast gene YPL152W) | level of expressed mRNA in the presence of chemical substance / level in the absence of chemical substance (yeast gene YPR049C)
0.6: The level of expressed mRNA in the presence of chemical substance/The level of expressed mRNA in the absence of chemical substance (yeast gene YNL074C)

Reference: US20100041089A1, “IMPROVED METHOD FOR DETECTING CHEMICAL […]” (priority 2006, published 2010)
